Assay results from patent US20140079785A1, “COMPOSITION COMPRISING LIPID NANOPARTICLES AND A CORTICOSTEROID OR VITAMIN D DERIVATIVE” (priority 2011, published 2014).

How the values were obtained:
[1] = In vitro skin penetration and permeation of 3H BMV, Franz type diffusion cells; assay type: in vitro ADME, porcine; conditions: barrier-impaired versus intact skin, applied in SLN
Protocol: The porcine ears were obtained from newly slaughtered pigs from the Danish Meat Trade College (Roskilde, Denmark). The ears were stored at −20° C. and thawed slowly at 4° C. before shaving and removing full-thickness skin from the back of the ears using a scalpel. Subcutaneous tissue was carefully removed with a scalpel and the skin was cut into appropriate pieces before freezing at −20° C. until use (after no more than 14 days). Two skin pieces were obtained from each ear, and they were balanced with respect to intact and barrier-impaired skin.
Skin barrier impairment was induced by 25 successive tape strippings applying D-Squame® tape discs (Cuderm Corp., Dallas, USA). 225 g/cm^2 pressure on the tape was applied with a D-Squame® tape applicator for 5 sec. (Cuderm Corp., Dallas, USA). […]
Penetration profiles of BMV and lipid were evaluated. ^3H-labelled BMV and ^14C-labelled lipid were used to study the penetration of BMV and lipid particles (distearate and tripalmitate) into intact and barrier-impaired skin.
The skin was mounted on Franz type diffusion cells with the dermis side facing the receptor medium (diffusion area 3.14 cm^2, recipient volume 10 ml, constant stirring, temperature kept at 32° C.). […] The exact amount of formulation applied was determined by weighing the spatula before and after application. After complete incubation, the skin was separated and analyzed. […]

[2] = tested on: IL-1β, IL-4, IL-8, IL-10 and IL-12; test: Cytokine level in ear tissue (MSD mouse TH1/TH2 9-plex); assay type: in vivo, mice; conditions: upon treatment with BMV
Protocol: The remaining ear tissue from the 8 mm biopsy was cut into two halves, one of which was tape stripped before analysing the drug concentration and the other was used for cytokine analysis. Both were snap-frozen in liquid nitrogen and stored at −80° C. until the analysis was carried out.
The ear tissue was homogenized in 200 μl lysis buffer using a Precellys® 24 tissue homogenizer with a Cryolys cooling unit from Bertin Technologies (Montigny-le-Bretonneux, France). The lysis buffer was composed of 1 mM Na3VO4, 0.4% (v/v) nonyl phenoxypolyethoxylethanol (NP40) and the protease inhibitor Complete™ from Roche Diagnostics (Mannheim, Germany) dissolved in PBS. […] The supernatant was kept at −80° C. until the MSD® cytokine assay was performed. A determination of the total protein concentration was performed to normalize the sample concentration before the cytokine determination. […] Specific level of the cytokines IFN-γ, IL-1-β, IL-2, IL-4, IL-5, IL-8, IL-10, IL-12 total and TNF-α in the ear tissue were determined with a MSD® mouse TH1/TH2 9-plex Multi-Spot® 96-well 10 spot plate using a MSD® Sector Imager 6000 (Meso Scale Discovery, Gaithersburg, Md., USA). The MSD® assay was optimized for tissue use. […] Washing was repeated 3 times with 0.05% (v/v) polysorbate 20 before finally adding 150 μl read buffer diluted 1:2 in MilliQ water and reading the plate on the MSD® Sector Imager 6000.

CCCCC(=O)O[C@]1(C(=O)CO)[C@@H](C)C[C@H]2[C@@H]3CCC4=CC(=O)C=C[C@]4(C)[C@@]3(F)[C@@H](O)C[C@@]21C [BMV, Betamethasone-17-Valerate]
increase in BMV penetration [1]: 3-60 fold | concentration of IL-5 and TNF-α [2]: below the detection limit
